According to PMC7497626, “Ruthenium-Mediated ^18F-Fluorination and Preclinical Evaluation of a New CB1 Receptor Imaging Agent [^18F]FPATPP” (ACS Chemical Neuroscience, 2020):
Where two headings read alike, the source gives them in different places. Blank lines part the entries; values can stand above or below the compound they belong to.

What was measured:
[1] = Stability / shelf life of the formulated tracer towards radiolysis; type: physicochemical; settings: studied up to 5 h after the EOS, n = 2
Method: For tracer production for preclinical evaluation, larger amounts of initial [^18F]fluoride were used and full purification and formulation processes were performed. For the radiofluorination, the SPE method with a 30 min reaction at 160 °C was utilized (conditions as in bar 2, Figure 2B). Elution efficiency was 93 ± 2% (n = 5). Total RCY was 16.7 ± 5.7% (decay-corrected to end of bombardment, d.c. to EOB, n = 5), molar activity (Am) > 95 GBq/μmol (d.c. to end of synthesis, EOS, n = 1) and radiochemical purity (RCP) 99.9 ± 0.1% at EOS (n = 5). Activity yield was 1.0 ± 0.4 GBq (n = 5) at EOS. Synthesis time was 87 ± 5 min (n = 5). The amount of ruthenium in the formulated product was 7.8 ± 1.8 μg/mL.
For PET tracers for clinical use, a generally acknowledged limit for RCP is 95%. […] Lahdenpohja et al. reported that the RCP of [^18F]FMPEP-d2 at EOS varied between 95.5–100% and was a function of radioactivity concentration, which was 20–200 MBq/mL (n > 150) in a 10% ethanolic solution, and the RCP was declined as a function of time due to radiolytic decomposition.[32] The shelf life of the [^18F]FMPEP-d2 was determined to be 120 min.[32] For [^18F]4 formulated in a similar ethanolic solution, the RCP at EOS was 99.9% when the RAC was 200–450 MBq/mL and the shelf life was determined to be at least 300 min, with no significant development of radioactive impurities. […]

mouse cerebral CB1Rs [2] = biological target: T1, mouse cerebral CB1Rs (Mus musculus, UniProt P47746); assay: In vivo dynamic PET/CT imaging with [^18F]4, with and without rimonabant blocking
T1 construct: from tissue
T1 sequence (P47746 whole entry): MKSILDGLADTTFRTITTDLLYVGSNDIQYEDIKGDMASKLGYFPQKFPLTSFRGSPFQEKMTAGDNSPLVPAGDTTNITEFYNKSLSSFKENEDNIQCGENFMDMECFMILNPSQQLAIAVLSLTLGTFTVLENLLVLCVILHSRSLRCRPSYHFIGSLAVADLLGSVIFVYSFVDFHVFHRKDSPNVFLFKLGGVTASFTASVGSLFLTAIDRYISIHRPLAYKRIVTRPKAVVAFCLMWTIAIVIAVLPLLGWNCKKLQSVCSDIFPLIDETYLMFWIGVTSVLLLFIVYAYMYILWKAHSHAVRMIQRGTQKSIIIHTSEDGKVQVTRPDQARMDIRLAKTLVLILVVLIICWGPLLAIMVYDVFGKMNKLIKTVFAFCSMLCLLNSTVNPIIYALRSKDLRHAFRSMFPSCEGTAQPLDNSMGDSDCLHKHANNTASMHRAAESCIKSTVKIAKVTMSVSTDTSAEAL
Method: Dynamic PET scans were performed for 5 month old mice with an Inveon Multimodality PET/CT scanner (Siemens Medical Solutions USA, Knoxville, Tennessee). Mice were anesthetized with 2.5% isoflurane/oxygen gas, and body temperature was maintained with a heating pad and a bubble-wrap cover. CT transmission scans were performed to correct for attenuation. PET scans were initiated in parallel with an intravenous (iv) bolus injection of [^18F]4 to the mouse tail vein (4–5 month old, n = 6, 2 females; injected radioactivity 4.0 ± 0.4 MBq; injected mass 56 ± 25 ng, 1.7 ± 0.7 μg/kg).
Dynamic emission scans were acquired for 120 min in 3D list mode, with an energy window of 350–650 keV. Scanning times were 120 min (54 frames 30 × 10 s, 15 × 60 s, 4 × 300 s, 2 × 600 s, 3 × 1200 s). The list mode data were stored in 3D sinograms. Data were reconstructed with OSEM3D/MAP software (2 OSEM3D iterations and 18 MAP iterations). The PET/CT images were preprocessed in Matlab R2017a (The MathWorks, Natick, Massachusetts) with an in-house semiautomated pipeline for preclinical images that uses SPM12 (Wellcome Department of Cognitive Neurology, London, UK) preprocessing functionalities and analysis routines. Images were first cropped to a bounding box containing the heads, and individual PET images were coregistered through a rigid-body transformation to their corresponding CT scan. Subjects were spatially normalized through a two-step registration (a rigid followed by an affine transformation) of each subject’s CT to a template CT that was previously constructed as an average of several subjects and was aligned with an atlas T2-weighted MRI template. The combination of transformations was then applied to the PET images, which were also resampled to a voxel size of 0.2 × 0.2 × 0.2 mm^3 (trilinear interpolation), matching the anatomical atlas dimensions.
Volume of interest (VOI) analysis of the whole brain, neocortex, and hippocampus was performed on each subject by averaging the signal inside a slightly modified version of the Ma et al.[40] atlas delineated VOIs, and data were obtained as standardized uptake values (SUVs). SUVs were calculated as follows: SUV = tissue activity concentration (Bq/mL)/(injected dose (Bq)/body weight (g)); it was assumed that 1 mL of tissue equals 1 g. Tissue activity and dose were decay corrected to the same time point.
(§1) The specificity of [^18F]4 on mouse cerebral CB1Rs was examined in a 120 min in vivo study, and then, the same mice were used for ex vivo biodistribution and brain autoradiography studies. […] Control mice (n = 3, 1 female) were the given vehicle (90 μL, 10% EtOH in Kleptose β-cyclodextrin). […] Mice were sacrificed 120 min after iv injection of [^18F]4, and the ^18F-radioactivity distribution differences between pretreated and control mice were examined with in vivo PET imaging, ex vivo autoradiography, and 2480 Wizard Gamma Counter, and the data were analyzed as described in the previous sections.

[3] = Radiometabolite analysis with [^18F]4 in plasma and cortex; type: in vivo, mouse; settings: 120 min p.i., n = 5
Method: The 2 month old animals (n = 11, used only for ex vivo studies) were used for metabolite analysis. Plasma and brain samples were collected at 30 (n = 4), 60 (n = 2), and 120 min (n = 5) p.i. Plasma samples were treated with MeCN and centrifuged to remove the proteins from the solution. Brain tissue samples were treated with the 40/60 (v/v) 1% TFA (aq)/MeCN solution and then centrifuged. The supernatants were applied to HPTLC silica gel 60 RP-18 plates (Art. 1.05914.0001, Merck, Darmstadt, Germany), and the plates were developed in 40/60 (v/v) 1% TFA (aq)/ MeCN. After drying, the TLC plates were exposed to an imaging plate for approximately 4 h and the imaging plate was scanned with a Fuji Analyzer BAS5000. The amount of [^18F]4 and its radioactive metabolites were analyzed with the Aida 4 program, and the curves were fitted with GraphPad Prism 6.0 (GraphPad Software, San Diego, California) using a double exponential decay equation.

mouse cerebral CB1Rs [4] = biological target: T1, mouse cerebral CB1Rs; assay: Ex vivo brain autoradiography with [^18F]4, region-to-thalamus ratios; type: in vivo; settings: 120 min post injection
Method: For autoradiography, brains were further frozen and cut into 20 μm coronal cryosections for digital autoradiography, and the slices were exposed on an imaging plate (BAS-TR2025, Fuji Photo Film Co.) for approximately 2 half-lives and scanned with a Fuji BAS5000 phosphorimager (FUJIFILM Life Science, Stamford, Connecticut). Digital autoradiographic images were analyzed for count densities with the Aida 4 program (Raytest Isotopenmessgeräte GmbH, Straubenhardt, Germany). For brain slices, regions of interest (ROIs) were drawn over the parietotemporal cortex, striatum, frontal cortex, hippocampus, cerebellar gray matter, and thalamus. The autoradiography was quantified as ratios of the different ROIs relative to the thalamus, which was used as the reference region.
as §1

[5] = Ex vivo biodistribution with [^18F]4; type: in vivo, mouse
Method: All in vivo animals (n = 6, 2 females) and additional 2 month old mice (n = 11, males, injected radioactivity 7.0 ± 3.0 MBq; injected mass 160 ± 60 ng, 6.2 ± 2.6 μg/kg) were used for ex vivo studies to examine the biodistribution and metabolism of [^18F]4. Thus, the injected dose and injected mass to all the animals used (n = 17) were 5.9 ± 2.8 MBq and 120 ± 70 ng, 4.6 ± 3.0 μg/kg, respectively. After iv injection of [^18F]4, mice were sacrificed in deep anesthesia of 4.0% isoflurane with cardiac puncture at 30 (n = 4), 60 (n = 2), and 120 min (in vivo animals, n = 6 and 2 month old mice n = 5). Organs were immediately dissected, weighed, and measured for ^18F-radioactivity in a 2480 Wizard Gamma Counter (Wallac PerkinElmer, Turku, Finland).
as §1

CB1R [6] = settings: cited from earlier work
CB1R [7] = tested on: CB1R; parameters: method as in PMID 29909177; settings: mice, cited from earlier work
[8] = parameters: method as in PMID 29909177; settings: 180 min p.i.; cited from earlier work
[9] = parameters: method as in PMID 32374481; settings: 10% ethanolic solution, radiolytic decomposition; cited from earlier work
CB1R [10] = tested on: CB1R; parameters: method as in doi:10.1016/B978-0-12-417041-4.00002-3; settings: cited from earlier work
[11] = Ex vivo biodistribution with [^18F]FMPEP-d2; type: in vivo, mouse
Method: After iv injection of [^18F]FMPEP-d2 to the mouse tail vein, the mice were sacrificed at the following time points: 30 min (3–4 month old, n = 3, males; injected radioactivity 1.3 ± 0.3 MBq; injected mass 1.5 ± 0.5 ng), 60 min (3–4 months old, n = 4, males; injected radioactivity 1.2 ± 0.8 MBq; injected mass 1.3 ± 1.0 ng), and 120 min (1.5–6 month old, n = 12, 5 females; injected radioactivity 2.6 ± 0.8 MBq; injected mass 3.1 ± 1.1 ng). Mice were sacrificed in deep anesthesia of 4.0% isoflurane with cardiac puncture. Organs were operated in the similar manner as in the biodistribution study with [^18F]4.

CB1R [12] = tested on: CB1R; parameters: method as in PMID 22699528; settings: cited from earlier work
[13] = 2 mg/kg rimonabant iv 10 min before tracer, 120 min after injection

- Reduction of binding by rimonabant pretreatment, hippocampus (mouse cerebral CB1Rs [2]; [13]): 62%
- Reduction of binding by rimonabant pretreatment, neocortex (mouse cerebral CB1Rs [2]; [13]): 59%
- Reduction of binding by rimonabant pretreatment, whole brain (mouse cerebral CB1Rs [2]; [13]): 58%
- SUV at 120 min p.i. (after washout) (mouse cerebral CB1Rs [2]; wild-type mice, 120 min p.i.): 1.3
- Peak standardized uptake value (SUV), hippocampus (mouse cerebral CB1Rs [2]; wild-type mice, baseline): 2.14
- Peak standardized uptake value (SUV), neocortex (mouse cerebral CB1Rs [2]; wild-type mice, baseline): 1.80
- Peak standardized uptake value (SUV), whole brain (mouse cerebral CB1Rs [2]; wild-type mice, baseline): 1.92
- Time of maximum tracer uptake after injection (mouse cerebral CB1Rs [2]; wild-type mice, brain PET): 30 min
- Residual tracer in plasma, of the total ^18F-radioactivity [3]: approximately 21.3 ± 3.5%
- Residual tracer in the cortex, of the total ^18F-radioactivity [3]: 75.0 ± 4.3%
- Region-to-thalamus ratios in mice pretreated with rimonabant (mouse cerebral CB1Rs [4]; 2 mg/kg rimonabant pretreatment): ~1
- Ratio cortex and cerebellar gray matter to thalamus (mouse cerebral CB1Rs [4]; without blocking): 3.7
- Ratio frontal cortex to thalamus (mouse cerebral CB1Rs [4]; without blocking): 2.5
- Ratio globus pallidus to thalamus (mouse cerebral CB1Rs [4]; without blocking): 4.9
- Ratio parietotemporal cortex to thalamus (mouse cerebral CB1Rs [4]; without blocking): 2.3
- Ratio striatum to thalamus (mouse cerebral CB1Rs [4]; without blocking): 2.8
- Ratio whole hippocampus to thalamus (mouse cerebral CB1Rs [4]; without blocking): 2.6
- Cortex uptake ([5]; 30 min p.i.): 11.5 ± 3.7 %ID/g
- Liver uptake ([5]; 30 min p.i.): 12.1 ± 0.7 %ID/g
- Whole brain uptake ([5]; 30 min p.i.): 9.8 ± 3.2 %ID/g
- Bone uptake (skull bone, parietal bone) ([5]; 120 min p.i.): 0.4 ± 0.1 %ID/g
- Cortex uptake ([5]; 120 min p.i.): 5.1 ± 1.17 % ID/g
- Liver uptake ([5]; 120 min p.i.): 8.2 ± 1.6 %ID/g
- Whole brain uptake ([5]; 120 min p.i.): 4.9 ± 0.9 %ID/g
- Cortex uptake in rimonabant treated mice ([5]; 120 min p.i., 2 mg/kg rimonabant pretreatment): 1.8 ± 0.2 %ID/g
SMILES: C[C@@H](N[C@@H]1C[C@H](c2cccc([18F])c2)N(c2ccc(C(F)(F)F)cc2)C1=O)c1ccccc1 [[^18F]4, (3R,5R)-5-(3-[^18F]fluorophenyl)-3-(((R)-1-phenylethyl)amino)-1-(4-(trifluoromethyl)phenyl)pyrrolidin-2-one]
- Stability of the formulated tracer after EOS [1]: no significant decomposition was observed
- Washout (mouse cerebral CB1Rs [2]; wild-type mice): washout phase began immediately after the peak uptake

- Whole brain ^18F-radioactivity uptake ([11]; 30 min p.i., healthy mice): 5.6 ± 1.3 %ID/g
- Skull bone (parietal bone) radioactivity uptake ([11]; 120 min p.i., healthy mice): 2.7 ± 0.5 %ID/g
- Defluorination compared to [^18F]4 ([11]; at 120 min, from skull bone uptake): over 6 fold
SMILES: C[C@@H](N[C@@H]1C[C@H](c2cccc(OC[18F])c2)N(c2ccc(C(F)(F)F)cc2)C1=O)c1ccccc1 [[^18F]FMPEP-d2, (3R,5R)-5-(3-([^18F]fluoromethoxy)phenyl)-3-(((R)-1-phenylethyl)amino)-1-(4-(trifluoromethyl)phenyl)pyrrolidin-2-one]
- Washout (CB1R [6]; human studies): slow washout
- Washout (CB1R [7]; up to 90 min p.i.): essentially no washout was observed
- Time of maximum tracer uptake (CB1R [7]): 30 min
- Whole brain SUV (CB1R [7]): 1.5
- Amount of residual tracer [8]: 86%
- Shelf life [9]: 120 min
- CB1R vs CB2R selectivity (CB1R [10]): 3580
- Kb (CB1R [10]; for CB1R, read-out: In vitro potency (Kb)): 0.187 nM

SMILES: Cc1ccc(OC(C)(C)C(=O)N[C@@H](C)[C@@H](Cc2ccc(OCC[18F])cc2)c2cccc(C#N)c2)nc1 [[^18F]MK-9470, N-{(1S,2S)-2-(3-cyanophenyl)-3-[4-(2-[^18F]fluoroethoxy)phenyl]-1-methylpropyl}-2-methyl-2-[(5-methylpyridin-2-yl)oxy]propanamide]
- Washout (CB1R [6]; human, even after 6 h): no washout was observed
- Time of maximum tracer uptake post injection (CB1R [12]; rat): 300 min
- Washout (CB1R [12]; rats, even after 600 min): no washout was observed
